Experimental data taken from patent publication US12628857B2, “Compositions comprising human milk oligosaccharides for use in a subject to support night sleep duration” (SOCIETE DES PRODUITS NESTLE S.A., priority 2020, dated 2026).

Columns and labels:
breast-fed children [1] = test: Correlation of breast milk HMO levels with sleep duration (BISQ), BCP-Enriched cohort; type: in vivo, human; conditions: FIG. 1
Description: (§1) The “BISQ” questionnaire is the brief infant sleep questionnaire, this questionnaire has been developed to screen sleep problems in infants and young children. This questionnaire has also been commonly used in sleep research to quantify quantity and quality of sleep as well as sleep maturation (Sadeh A. “Sleep assessment method” Monographs Soc Res Child Dev 80(1) 2015).
(§2) In the framework of the BISQ questionnaire one or more parameters are observed and recorded that are selected in the group consisting of: nocturnal sleep duration (between the hours of 7 pm and 7 am); daytime sleep duration (between the hours of 7 am and 7 pm); number of night awaking; duration of wakefulness during the night hours (10 pm to 6 am); nocturnal sleep-onset time (the clock time at which the child falls asleep for the night); settling time (latency to falling asleep for the night); method of falling asleep; location of sleep; and preferred body position. […]
A subset of typically developing children (n=92) enrolled in the BCP cohort aged between 0-20 months who were breast-fed at the time of visit were included in this study. […] The collected BMs were analyzed for HMOs, including 2′-Fucosyllactose (2FL), 3′-Fucosyllactose (3FL), 3′-Sialyllactose (3SL), 6′-Sialyllactose (6SL), Lacto-N-tetraose (LNT), Lacto-N-neotetraose (LNnT), Lacto-N-fucopentaose I (LNFP1), and A-Tetrasaccharide. […]

breast-fed children [2] = test: Association of breast milk HMO levels with BISQ sleep parameters, LIFE Child cohort; type: in vivo, human; conditions: 3 months of age
Description: as §1, §2
A subset of typically developing children enrolled in the LIFE Child cohort aged between 0-12 months who were breast-fed at the time of visit were included in this study. and consists of breast milk samples—collected in mothers at 3, 6 and 12 months after child's birth—and questionnaires—collected during pregnancy and the first year of the child's life—containing information about children sleep and some related confounding factors. the analysis was conducted on 153 subjects at 3 months, 113 subjects at 6 months and 27 subjects at 12 months. The collected BMs were analyzed for HMOs, including 2′-Fucosyllactose (2FL), 3′-Fucosyllactose (3FL), 3′-Sialyllactose (3SL), 6′-Sialyllactose (6SL), Lacto-N-tetraose (LNT), Lacto-N-neotetraose (LNnT), Lacto-N-fucopentaose I (LNFP1), and A-Tetrasaccharide. The association between sleep parameters generated using the BISQ and breast milk HMO levels were evaluated using logistic regression models. […] Both LNT and total core-HMO correlated with total night sleep time assessed by the BISQ (p<0.05, FIGS. 3 and 4 respectively).

| Structure (SMILES) | Correlation of total night-time sleep time with breast milk levels (breast-fed children [1]; BCP-Enriched, n=92, infant aged more than 11 months, p=0.05) | Correlation of total night time sleep with breast milk levels (breast-fed children [1]; BCP-enriched cohort, age >10 months, p<0.05) | Correlation of total night time sleep with breast milk levels (breast-fed children [2]; BISQ, p<0.05, FIGS. 3 and 4) | Dependence of the night sleep association on the method to go to sleep (need of rocking) (breast-fed children [2]; FIG. 3) | Correlation of total sleep time with breast milk levels (breast-fed children [2]; p<0.05, FIG. 2) |
| --- | --- | --- | --- | --- | --- |
| CC(=O)N[C@H]1[C@H]([C@H](O)[C@H](O)CO)O[C@@](O[C@H]2[C@@H](O)[C@@H](CO)O[C@@H](O[C@H]3[C@H](O)[C@@H](O)C(O)O[C@@H]3CO)[C@@H]2O)(C(=O)O)C[C@@H]1O (stereo partly drawn) [3SL, (6R)-5-Acetamido-3,5-dideoxy-6-[(1R,2R)-1,2,3-trihydroxypropyl]-β-L-threo-hex-2-ulopyranonosyl-(2→3)-β-D-galactopyranosyl-(1→4)-D-glucopyranose] | correlate positively | significantly correlated | – | – | – |
| CC(=O)N[C@H]1[C@H](O[C@H]2[C@@H](O)[C@@H](CO)O[C@@H](O[C@H]3[C@H](O)[C@@H](O)C(O)O[C@@H]3CO)[C@@H]2O)O[C@H](CO)[C@@H](O)[C@@H]1O[C@@H]1O[C@H](CO)[C@H](O)[C@H](O)[C@H]1O (some centres unmarked) [LNT, Lacto-N-tetraose] | – | – | significantly correlated | independent of the method to go to sleep | significantly correlated |
